# pIC50: −log10 of the molar value.
# Target: Gastrin/cholecystokinin type B receptor (Cavia porcellus)
# Experiment: Binding activity against Cholecystokinin type B receptor from guinea pig cortex using [125]BH CCK-8s as radioligand.
smiles,measurement,value
"Cc1cccc(NC(=O)NC2N=C(N3CCCCC3)c3ccccc3N(C)C2=O)c1 (stereo unspecified) [1-(1-Methyl-2-oxo-5-piperidin-1-yl-2,3-dihydro-1H-benzo[e][1,4]diazepin-3-yl)-3-m-tolyl-urea]",pIC50,8.24

# Reference: BindingDB's records for doi:10.1021/jm00032a002 (Merck Sharp and Dohme Research Laboratories, 1994)
